This is an account of results in US8163737B2 (Vertex Pharmaceuticals Incorporated, priority 2006, dated 2012).

Test [1] concerns the target T1, CGRP receptor (SK-N-MC membrane) (Homo sapiens, UniProt O60894+Q16602).
T1 construct: Purified SK-N-MC membrane was purchased from Perkin Elmer; purchased Perkin Elmer; host or cells: SK-N-MC membrane
Nature of the test: I125-CGRP binding displacement assay on purified SK-N-MC membrane. The protocol:
Purified SK-N-MC membrane was purchased from Perkin Elmer. The membrane was thawed quickly and placed on ice. The compounds were diluted with CGRP binding solution (25 mM Tris-HCl, pH7.4, 5 mM MgCl2, 0.1% BSA and 0.05% Tween). The membrane was diluted 1:20 with the binding solution and homogenized with Tissue Matster-50 Homogenizer (Omni International) for 30 sec. The homogenized membrane was added to compounds in the binding solution. […] After 2 hour incubation at room temperature, the reaction was stopped by rapid filtration through 0.5% PEI treated GF/C filter plate (Perkin Elmer) and the filter plate was washed with ice-cold washing solution (50 mM Tris HCl, pH7.4, 5 mM MgCl2 and 0.1% BSA) using cell harvestor (Tomtec). The radioactivity of the filter plates were read on Topcount (Packard). The nonspecific binding was determined in the control reaction where 1 uM unlabelled CGRP was preincubated with the membrane prior to I125-CGRP addition. The total binding was determined in the control reaction of the membrane and I125-CGRP in the absence of compound. The percent displacement of I125-CGRP with compounds was calculated using nonspecific and total binding controls. The curve fitting was carried out using MOD3.

The next test has as its target endogenous CGRP receptor (Homo sapiens, UniProt O60894+Q16602). Nature of the test: CGRP functional antagonism using SK-N-MC-BLA (4C10), β-lactamase transcriptional reporter assay. The test is classed as cell-based. The note with it: SK-N-MC (4C10) cells, inhibition of β-lactamase expression in the presence of 200 pM CGRP.

In general, Ki refers to a dissociation constant, usually derived from enzyme kinetics or from competition with a known ligand. Lower therefore signals tighter binding. By IC50 is commonly meant the concentration at which inhibition is half-maximal.

Chain of endogenous CGRP receptor (Q16602 23-461): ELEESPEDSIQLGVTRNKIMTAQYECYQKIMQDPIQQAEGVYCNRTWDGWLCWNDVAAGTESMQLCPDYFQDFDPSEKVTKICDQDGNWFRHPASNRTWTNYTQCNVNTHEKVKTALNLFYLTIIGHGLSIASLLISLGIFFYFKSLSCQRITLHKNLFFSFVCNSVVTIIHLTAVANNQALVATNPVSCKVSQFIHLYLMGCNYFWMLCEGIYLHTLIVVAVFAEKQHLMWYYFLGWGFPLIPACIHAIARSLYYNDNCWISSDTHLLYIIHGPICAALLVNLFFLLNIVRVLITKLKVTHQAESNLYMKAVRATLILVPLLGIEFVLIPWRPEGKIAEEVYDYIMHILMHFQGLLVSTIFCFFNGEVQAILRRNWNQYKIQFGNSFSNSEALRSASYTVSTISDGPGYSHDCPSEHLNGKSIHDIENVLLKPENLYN
Chain of endogenous CGRP receptor (O60894 27-148): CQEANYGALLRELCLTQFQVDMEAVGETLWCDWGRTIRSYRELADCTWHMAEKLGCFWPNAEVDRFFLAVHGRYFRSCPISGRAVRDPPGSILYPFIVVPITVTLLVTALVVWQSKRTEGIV
T1 sequence (Q16602 23-461): as the sequence (Q16602 23-461) above
T1 sequence (O60894 27-148): as the sequence (O60894 27-148) above

For `CC(C)(C)CCN1C(=O)[C@H](CC(=O)N2CCC(N3CC(=O)NC3=O)CC2)S[C@H]1c1cccc(F)c1N1CCN(C(C)(C)C)CC1` [Compound 447], in test [1], the Ki was below 1 µM. At endogenous CGRP receptor, the half-maximal inhibitory concentration (IC50) is below 1 µM.
In test [1], `CC(C)(C)CCN1C(=O)[C@H](CC(=O)N2CCC(N3CCc4ccccc4NC3=O)CC2)SC1c1cccc(F)c1NCCN1CCCCC1` (stereo partly drawn) [Compound 520, 3-(1-(2-((5S)-2-(2-(2-(Piperidin-1-yl)ethylamino)-3-fluorophenyl)-3-(3,3-dimethylbutyl)-4-oxothiazolidin-5-yl)acetyl)piperidin-4-yl)-4,5-dihydro-1H-benzo[d][1,3]diazepin-2(3H)-one] came in with a Ki below 1 µM. In addition, on endogenous CGRP receptor, the IC50 is below 1 µM.
On to `CC(C)(C)CCN1C(=O)[C@H](CC(=O)N2CCC(N3CCc4ccccc4NC3=O)CC2)SC1c1cc(F)cc(F)c1N1CCN(C(C)(C)C)CC1` (stereo partly drawn) [Compound 478, (5S)-2-(2-(4-tert-Butylpiperazin-1-yl)-3,5-difluorophenyl)-3-(3,3-dimethylbutyl)-5-(2-oxo-2-(4-(2-oxo-4,5-dihydro-1H-benzo[d][1,3]diazepin-3(2H)-yl)piperidin-1-yl)ethyl)thiazolidin-4-one], for which the Ki in test [1] is below 1 µM. Besides, the IC50 on endogenous CGRP receptor is below 1 µM.
In test [1], `CC(C)(C)CCN1C(=O)[C@H](CC(=O)N2CCC(N3CCc4ccccc4NC3=O)CC2)SC1c1cnc(C2CCNCC2)s1` (stereo partly drawn) [Compound 497, (5S)-3-(3,3-Dimethylbutyl)-5-(2-oxo-2-(4-(2-oxo-4,5-dihydro-1H-benzo[d][1,3]diazepin-3(2H)-yl)piperidin-1-yl)ethyl)-2-(2-(piperidin-4-yl)thiazol-5-yl)thiazolidin-4-one] yielded a Ki below 1 µM. Also, the IC50 at endogenous CGRP receptor is below 1 µM.
As to `CC(C)CCN1C(=O)C(CC(=O)N2CCC(n3c(=O)[nH]c4ccccc43)CC2)S[C@H]1c1ccccc1N1CCC(O)CC1` (stereo partly shown) [Compound 290], in test [1], the Ki was below 1 µM. Further, the IC50 at endogenous CGRP receptor is below 1 µM.
`CC(C)(C)CCN1C(=O)C(CC(=O)N2CCC(N3CCc4ccccc4NC3=O)CC2)SC1c1cccc(F)c1F` (stereo not shown) [Compound 48]: the Ki in test [1] is below 1 µM. In addition, the IC50 at endogenous CGRP receptor was below 1 µM.
In turn, `CN(C)c1ccccc1C1SC(CC(=O)N2CCC(N3Cc4ccccc4NC3=O)CC2)C(=O)N1CCC(C)(C)C` (stereo not shown) [Compound 198] had a Ki in test [1] below 1 µM. Also, the half-inhibitory concentration (IC50) at endogenous CGRP receptor was below 1 µM.
`CC(C)CCN1C(=O)C(CC(=O)N2CCC(N3Cc4ccccc4NC3=O)CC2)SC12CCSCC2` (stereo not shown) [Compound 84] returned a Ki in test [1] below 1 µM. For the same molecule, on endogenous CGRP receptor, the half-maximal inhibitory concentration (IC50) was below 1 µM.
The molecule `CC(C)CCN1C(=O)C(CC(=O)N2CCC(N3Cc4ccccc4NC3=O)CC2)SC1c1ccccc1C#N` (stereo not shown) [Compound 227] gave a Ki in test [1] below 1 µM. Besides, at endogenous CGRP receptor, the IC50 is below 1 µM.
Molecule `CCCCN1CCN(c2ccccc2C2SC(CC(=O)N3CCC(N4CCc5ccccc5NC4=O)CC3)C(=O)N2CCC(C)(C)C)CC1` (stereo not shown) [Compound 365] displayed a Ki in test [1] below 1 µM. The IC50 on endogenous CGRP receptor was below 1 µM.
The molecule `CC(C)(C)CCN1C(=O)[C@H](CC(=O)N2CCC(N3CCc4ccccc4NC3=O)CC2)SC1c1ccn(C2CCNCC2)n1` (stereo partly shown) [Compound 491] came in with a Ki in test [1] below 1 µM. Besides, the IC50 at endogenous CGRP receptor is below 1 µM.
As for `CC(C)CCN1C(=O)C(CC(=O)N2CCC(N3Cc4ccccc4NC3=O)CC2)SC1c1ccc(F)cc1F` (stereo not shown) [Compound 212], the Ki in test [1] is below 1 µM. Further, the half-inhibitory concentration (IC50) at endogenous CGRP receptor is below 1 µM.
Turning to `CC(C)(C)CCN1C(=O)[C@H](CC(=O)N2CCC(n3c(=O)[nH]c4ncccc43)CC2)SC1c1cccc(F)c1N1CCC(F)C1` (stereo partly shown) [Compound 480], in test [1], the Ki is below 1 µM. The IC50 at endogenous CGRP receptor fell in the range of 1 to 5 µM.
The corresponding values for `CC(C)(C)CCN1C(=O)C(CC(=O)N2CCC(n3c(=O)[nH]c4ncccc43)CC2)SC1c1ccccc1N1CCC(O)CC1` (stereo not shown) [Compound 415] are below 1 µM and 1 to 5 µM.
The matching figures for `CN(C)C1CCN(c2c(F)cccc2[C@@H]2S[C@@H](CC(=O)N3CCC(n4c(=O)[nH]c5ncccc54)CC3)C(=O)N2CCC(C)(C)C)C1` (stereo partly shown) [Compound 456]: below 1 µM and 1 to 5 µM.
The corresponding values for `CC(C)CCN1C(=O)C(CC(=O)N2CCC(N3Cc4ccccc4NC3=O)CC2)SC1c1c(F)cccc1C(F)(F)F` (stereo not shown) [Compound 256] are below 1 µM and below 1 µM.
`CC(C)(C)CCN1C(=O)[C@H](CC(=O)N2CCC(N3CCc4ccccc4NC3=O)CC2)SC1c1cnc(C2CCN(C(=O)OC(C)(C)C)CC2)s1` (stereo partly drawn) [Compound 492, tert-Butyl 4-(5-((5S)-3-(3,3-dimethylbutyl)-4-oxo-5-(2-oxo-2-(4-(2-oxo-4,5-dihydro-1H-benzo[d][1,3]diazepin-3(2H)-yl)piperidin-1-yl)ethyl)thiazolidin-2-yl)thiazol-2-yl)piperidine-1-carboxylate] registered a Ki in test [1] below 1 µM. Moreover, the IC50 at endogenous CGRP receptor lay in the range of 1 to 5 µM.
The corresponding values for `CC(C)N1C(=O)C(CC(=O)N2CCC(N3Cc4ccccc4NC3=O)CC2)SC1c1ccccc1` (stereo not shown) [Compound 255, 3,4-Dihydro-3-(1-(2-(3-isopropyl-4-oxo-2-phenylthiazolidin-5-yl)acetyl)piperidin-4-yl)quinazolin-2(1H)-one] are below 1 µM and 1 to 5 µM.
Turning to `CC(C)CCN1C(=O)C(CC(=O)N2CCC(N3Cc4ccccc4NC3=O)CC2)SC12c1ccccc1-c1ccccc12` (stereo not shown) [Compound 14], the Ki in test [1] was below 1 µM. At endogenous CGRP receptor, the IC50 was below 1 µM.
With `CC(C)(C)CCN1C(=O)C(CC(=O)N2CCC(n3c(=O)[nH]c4ncccc43)CC2)SC1c1cccc(F)c1NCCN1CCOCC1` (stereo in doubt) [Compound 517, 1-(1-(2-((5S)-2-(2-(2-Morpholinoethylamino)-3-fluorophenyl)-3-(3,3-dimethylbutyl)-4-oxothiazolidin-5-yl)acetyl)piperidin-4-yl)-1H-imidazo[4,5-b]pyridin-2(3H)-one], the Ki in test [1] was below 1 µM. Also, the IC50 on endogenous CGRP receptor was below 1 µM.
Regarding `CC(C)CCN1C(=O)C(CC(=O)N2CCC(N3Cc4ccccc4NC3=O)CC2)S(=O)(=O)C1c1ccc(F)cc1F` (stereo not shown) [Compound 203], the Ki in test [1] was below 1 µM. For the same molecule, at endogenous CGRP receptor, the IC50 was in the range of 1 to 5 µM.
For the molecule `CC(C)CCN1C(=O)C(CC(=O)N2CCC(N3Cc4ccccc4NC3=O)CC2)SC1c1cccc(OC(F)(F)C(F)F)c1` (stereo not shown) [Compound 240], the Ki in test [1] is below 1 µM. In addition, the IC50 on endogenous CGRP receptor lay in the range of 1 to 5 µM.
The matching figures for `CC(C)(C)CCN1C(=O)[C@H](CC(=O)N2CCC(n3c(=O)[nH]c4ncccc43)CC2)S[C@H]1c1cccc(F)c1N1CCC(O)C1` (stereo partly shown) [Compound 462]: below 1 µM and below 1 µM.
The matching figures for `CC(C)(C)CCN1C(=O)[C@H](CC(=O)N2CCC(N3CCc4ccccc4NC3=O)CC2)SC1c1ccccc1N1CCN(C(=O)OC(C)(C)C)CC1=O` (stereo partly shown) [Compound 510]: below 1 µM and below 1 µM.
In test [1], `CC(C)CCN1C(=O)C(CC(=O)N2CCC(N3Cc4ccccc4NC3=O)CC2)[S+]([O-])C1c1ccccc1` (stereo not shown) [Compound 118] gave a Ki below 1 µM. Besides, the IC50 on endogenous CGRP receptor was 1 to 5 µM.
In turn, `CC(C)(C)CCN1C(=O)[C@H](CC(=O)N2CCC(N3CCc4ccccc4NC3=O)CC2)S[C@@H]1c1ccccc1C1CCNCC1` [Compound 501, 4,5-Dihydro-3-(1-(2-((2R,5S)-3-(3,3-dimethylbutyl)-4-oxo-2-(2-(piperidin-4-yl)phenyl)thiazolidin-5-yl)acetyl)piperidin-4-yl)-1H-benzo[d][1,3]diazepin-2(3H)-one] displayed a Ki in test [1] below 1 µM. Moreover, at endogenous CGRP receptor, the IC50 was below 1 µM.
